Reference: US20090098139A1, “Combination therapy for the treatment of neovascular disorders” (priority 2006, published 2009)

What was measured:
[1] = test system: animal counterpart of isoform 165; experiment: preclinical animal studies: abnormal blood vessel growth in the retina; format: in vivo; conditions: binding to animal counterpart of VEGF isoform 165
[2] = test system: animal counterpart of isoform 121; experiment: preclinical binding to VEGF isoform 121 counterpart; conditions: preclinical in vitro and animal studies
[3] = test system: normal vessels of the retina; experiment: animal study, direct comparison with a VEGF inhibitor that blocks all isoforms: normal retinal vessels; format: in vivo; conditions: the pan-VEGF isoform inhibitor comparator altered their growth and survival

pegaptanib sodium [Macugen]
inhibition of abnormal blood vessel growth in the retina [1]: highly effective in inhibiting abnormal blood vessel growth in the retina
binding with the animal counterpart of isoform 121 [2]: did not bind with the animal counterpart of isoform 121 to any significant degree
effect on the normal vessels of the retina [3]: did not affect the normal vessels of the retina
